Patent EP2884284A1, “Dry diagnostic reagent” (priority 2013, dated 2015)

Assays:
[1] = Moisture uptake over saturated K2SO4 solution at about 100% relative humidity; conditions: about 25°C, amorphous except for CaCl2
[2] = Moisture uptake, modified Ph. Eur. 5.11 hygroscopicity method; format: physicochemical; conditions: mass increase during 24h storage over saturated ammonium sulfate solution, 25°C, about 100 mg
Method: It determines the mass increase (% (m/mo)) during a 24h storage period over a saturated ammonium sulfate solution.

[3] = Glass transition of the maximally frozen system Tg' by differential scanning calorimetry; conditions: solutions contained 12.5% (m/V) of the respective amorphous solid
From the text: Further, the temperature Tg' is the glass transition temperature of the maximally frozen system, i.e. the glass transition of the amorphous phase within an ice matrix (from ultrapure water).

[4] = Solubility, Ph. Eur. 5.11 procedure in TRIS buffer
From the text: Table 3: Categorization of solubility according to Ph. Eur. 7.4

[5] = Disintegration and dissolution time of lyophilisates, adjusted Ph. Eur. 7.4 oral lyophilisates method; format: physicochemical; conditions: lyophilisate about 1 mg from 12.5 % (m/V) solution, 300 µL TRIS buffer pH 7.4, about 22°C, no stirring
Method: Disintegration of substances described in Examples 5 and 6 were determined according to the method described in the European Pharmacopoeia 7.4 in monograph "tablets" section "oral lyophilisates". The disintegration time is acceptable if the oral lyophilisate disintegrates within 3 minutes in 200mL of "purified water R" at temperatures between 15°C and 25°C. Herein, disintegration is the loss of the overall structure, whereas dissolution means that the compound is completely dissolved.
This method was adjusted for the small volume lyophilisates which were used here (∼10 µL initial solution which corresponds to a lyophilysate mass of about 1 mg). Therefore the lyophilized product was added to 300 µL of TRIS buffer (adjusted pH 7.4 at 22°C) without any additional manipulation, e.g. shaking or stirring. In addition to the disintegration time the time until the whole product was completely dissolved, i.e. no visible particles detectable, has been determined at about 22°C (22.1 - 22.3 °C during the experiment).
. It was not possible to lyophilize pure amorphous calcium lactate due to rapid solidification and partially crystallization of the solution, which contained also 12.5%(m/V) amorphous calcium lactate. Table 9: Disintegration time and dissolution time for substances

[6] = Hygroscopicity measurement by mass increase in a glove box at relative air humidity > 50%; format: physicochemical; conditions: 1.0g sample, 22.5°C to […], 96 hours, referring to the initial mass
Method: The hygroscopicity of compounds was measured by weighing (Mettler AT261 "Delta Range" balance) in the samples at the start of the experiment and at certain time points within a total period of 96 hours. The increase in mass (in %) was calculated for each sample as: (mt -mt0)/(mt0) × 100% [formula] • wherein mt is the mass of the sample at a certain time t and Mt0 is the mass of the sample at the start when placing it in the glove box.

citrated whole blood = test: ROTEM ex-tem assay, recalcification with freeze-dried pellets; conditions: freeze-dried CaCl2 pellets
Method: The compatibility with coagulation measurement was determined using the ROTEM® device. The measurement was conducted according to the respective automated ROTEM® sequence. 300 µL citrated whole blood (obtained from healthy individuals) were used for each measurement. The pipetting of the respective liquid reagents was performed according to the sequence or was skipped for the solid reagents. […] Coagulation was initiated using the tissue factor based ex-tem® reagent.
The ex-tem® assay was selected because of the tissue factor coagulation activation and the resulting short clotting times (CT). Therefore it was possible to investigate whether the freeze-dried products containing a high amount of solid would dissolve rapidly enough to assure complete recalcification and clotting times within a normal range.

[7] = Glass transition temperature Tg by differential scanning calorimetry; format: physicochemical
Method: Hydranal® Coulomat AG Oven served as a reagent. About 10 mg of the substance was used for an expected residual moisture between 5 - 10%(m/m) and about 50 - 80 mg were used for an expected moisture content […]. […]
Primary drying was carried out at Tinlet = -30° C / 30mtorr for 15h followed by secondary drying at 40°C / 30mtorr for 6h with a heating rate between the two steps of 0.3 °C/min. The glass transition temperature as well as the residual moisture content were measured after freeze drying for the respective substance.

Compound	Uptake rate during 3h storage at 99.9 % rel. humidity (sat. K2SO4 sol.) [1]	Ph. Eur. method Hygroscopicity [2]	Glass transition of the frozen system (Tg') [3]	Disintegration time [5]	Dissolution time (mean ± sdv) [5]	other results
CC(O)C(=O)[O-].CC(O)C(=O)[O-].[Ca+2] (stereo not shown) [CL, calcium lactate]	0.384 ratio compared to CaCl2	30.28 %(m/mo	–	–	–	–
O=C([O-])[C@H](O)[C@@H](O)[C@H](O[C@@H]1O[C@H](CO)[C@H](O)[C@H](O)[C@H]1O)[C@H](O)CO.O=C([O-])[C@H](O)[C@@H](O)[C@H](O[C@@H]1O[C@H](CO)[C@H](O)[C@H](O)[C@H]1O)[C@H](O)CO.[Ca+2] [CLB, calcium lactobionate]	0.226 ratio compared to CaCl2	21.08 %(m/mo	-13.27 °C	<1 s	13 ± 2 s	Ph. Eur. method Solubility ([4]; 100mg substance, TRIS buffer isotonic pH = 7.4, 25.0°C, visual after 1 min. mixing and 15 min. storage): very soluble; Calculated solubility Cs ([4]; category limits of table 3 divided by Mr, 15 min): Cs ≥ 1.325 mol/L
[Ca+2].[Cl-].[Cl-] [CaCl2, calcium chloride, reference compound]	1.000 ratio compared to CaCl2	CaCl2 = 113.9%(m/mo	–	–	–	mass increase [6]: over 20%; behaviour of freeze-dried pellets (hygroscopicity) (citrated whole blood): liquefied rapidly
Calcium lacto ascorbate [CLA]	–	–	-20.18 °C	<1 s	14 ± 3 s	–
calcium ascorbate [reference compound]	–	31.77 %(m/mo	-24.61 °C	<1 s	11 ± 1 s	–
calcium ascorbate gluconate [CAG]	–	19.65 %(m/mo	-15.70 °C	<1 s	11 ± 2 s	–
calcium ascorbate lactobionate [CALB]	–	–	-13.28 °C	<1 s	12 ± 1 s	–
calcium gluconate [CG, reference compound]	0.214 ratio compared to CaCl2	20.16 %(m/mo	-11.08 °C	<1 s	9 ± 1 s	–
calcium lacto gluconate [CLG ME]	0.204 ratio compared to CaCl2	–	-11.74 °C	<1 s	19 ± 6 s	–
calcium lacto lactobionate [CLLB]	0.357 ratio compared to CaCl2	19.18 %(m/mo	-15.58 °C	<1 s	18 ± 4 s	Tg ([7]; CLLB ratio 0, moisture content 14 %(m/m)): 34,39 °C; Tg ([7]; CLLB ratio 0, moisture content 5,196 %(m/m)): 112,86 °C; Tg ([7]; CLLB ratio 0, moisture content 10,151 %(m/m)): 58,45 °C; Tg ([7]; CLLB ratio 34.82, moisture content 0 %(m/m)): 143.05 °C; Tg ([7]; CLLB ratio 34.82, moisture content 4.44 %(m/m)): 104.03 °C; Tg ([7]; CLLB ratio 34.82, moisture content 7.26 %(m/m)): 73.08 °C; Tg ([7]; CLLB ratio 34.82, moisture content 9.86 %(m/m)): 56.42 °C; Tg ([7]; CLLB ratio 34.82, moisture content 11.82 %(m/m)): 47.945 °C; Tg ([7]; CLLB ratio 34.82, moisture content 14.60 %(m/m)): 32.13 °C; Tg ([7]; CLLB ratio 82.77, moisture content 0 %(m/m)): 148.05 °C; Tg ([7]; CLLB ratio 82.77, moisture content 5.19 %(m/m)): 96.38 °C; Tg ([7]; CLLB ratio 82.77, moisture content 6.35 %(m/m)): 79.84 °C; Tg ([7]; CLLB ratio 82.77, moisture content 6.93 %(m/m)): 73.34 °C; Tg ([7]; CLLB ratio 82.77, moisture content 8.00 %(m/m)): 67.39 °C; Tg ([7]; CLLB ratio 82.77, moisture content 14.49 %(m/m)): 34.39 °C; Tg ([7]; CLLB ratio %(m(CL)/m(CLB)) = 100, moisture content 0 %(m/m) (annealed)): 140.08 °C; Tg ([7]; CLLB ratio %(m(CL)/m(CLB)) = 100, moisture content 5.10 %(m/m)): 82.46 °C; Tg ([7]; CLLB ratio %(m(CL)/m(CLB)) = 100, moisture content 8.20 %(m/m)): 64.81 °C; Tg ([7]; CLLB ratio %(m(CL)/m(CLB)) = 100, moisture content 13.87 %(m/m)): 30.65 °C
calcium lacto pantothenate [CLP]	–	–	-23.02 °C	<1 s	8 ± 1 s	–
calcium lactobionate pantothenate [CLBP]	–	–	-18.84 °C	<1 s	10 ± 2 s	–
calcium pantothenate [CP, reference compound]	–	22.02 %(m/mo	-25.28 °C	<1 s	6 ± 1 s	–
